Measured values as given in article PMC9151520 (Archives of Toxicology, 2022).
“And” between values parts separate entries of the source, which are not always exact repeats. Identical values can stand only once. Like-named read-outs stand apart in the source and are kept apart here.

What was measured:
[1] = tested on: p53 signaling (p53RE-bla HCT-116 cells); experiment: cells; assay type: cell-based
[2] = tested on: p53 signaling (p53RE-bla HCT-116 cells)
[3] = tested on: p53 signaling (p53RE-bla HCT-116 cells); remark: listed apart in the source
[4] = Homo sapiens, HCT-116, read-out: p53 activation EC50, primary screening
[5] = Homo sapiens, HCT-116, read-out: p53 activation efficacy, primary screening
[6] = Homo sapiens, HCT-116, read-out: p53 activation EC50, cherry pick confirmation
[7] = Homo sapiens, HCT-116, read-out: p53 activation efficacy, cherry pick confirmation
[8] = read-out: p53 activation EC50, cherry pick confirmation
[9] = read-out: p53 activation EC50, primary screening
[10] = read-out: Viability EC50, cherry pick confirmation
[11] = read-out: Viability EC50, primary screening

Structure (SMILES)	p53 activation efficacy, cherry pick confirmation [1]	EC50 [1, 4]	Emax [1, 5]	p53 activation EC50, cherry pick confirmation [2]	p53 activation EC50, primary screening [2]	p53 activation efficacy, cherry pick confirmation [2]	p53 activation efficacy, primary screening [2]	p53 activation EC50, cherry pick confirmation [3]	p53 activation EC50, primary screening [3]	p53 activation efficacy, cherry pick confirmation [3]	p53 activation efficacy, primary screening [3]	Viability EC50, cherry pick confirmation (p53RE-bla HCT-116 cells)	Viability EC50, primary screening (p53RE-bla HCT-116 cells)	Viability efficacy, cherry pick confirmation (p53RE-bla HCT-116 cells)	Viability efficacy, primary screening (p53RE-bla HCT-116 cells)	p53 activation efficacy, primary screening [1]	EC50 [1, 8]	EC50 [1, 9]	also measured
N#Cc1c[nH]cc1-c1cccc2c1OC(F)(F)O2 [Fludioxonil]	inactive	15.6 µM	65.1%	inactive	inactive	inactive	inactive	inactive	inactive	inactive	inactive	inactive	inactive	inactive	inactive				p53 activation EC50, cherry pick confirmation [1]: inactive
O=C(Nc1cccc(Cl)c1)OCC#CCCl [Barban]		19 µM	37.2%	inactive	inactive	inactive	inactive	inactive	inactive	inactive	inactive	inactive	inactive	inactive	inactive				EC50 [1, 6]: 32.3 µM; Emax [1, 7]: 46.3%
CNC(=O)Oc1ccccc1OC(C)C [Propoxur]																			p53 activation EC50 [1]: inactive; p53 activation efficacy [1]: inactive; p53 activation EC50 [2]: inactive; p53 activation EC50 [3]: inactive; Viability EC50 (p53RE-bla HCT-116 cells): inactive; Viability efficacy (p53RE-bla HCT-116 cells): inactive
Cl.O.c1cnc2c(c1)ccc1cccnc12																			Efficacy, p53 activation, cherry pick confirmation [1]: 70.9047; Efficacy, p53 activation, primary screening [1]: 35.453; EC50 ([1]; read-out: EC50, p53 activation, cherry pick confirmation): 50.2 µM; EC50 ([1]; read-out: EC50, p53 activation, primary screening): 25.8 µM; EC50, p53 activation, cherry pick confirmation [2]: inactive; EC50, p53 activation, primary screening [2]: inactive; Efficacy, p53 activation, cherry pick confirmation [2]: inactive; Efficacy, p53 activation, primary screening [2]: inactive; EC50, p53 activation, cherry pick confirmation [3]: inactive; EC50, p53 activation, primary screening [3]: inactive; Efficacy, p53 activation, cherry pick confirmation [3]: inactive; Efficacy, p53 activation, primary screening [3]: inactive; EC50, viability, cherry pick confirmation (p53RE-bla HCT-116 cells): inactive; EC50, viability, primary screening (p53RE-bla HCT-116 cells): inactive; Efficacy, viability, primary screening (p53RE-bla HCT-116 cells): inactive; EC50 (p53RE-bla HCT-116 cells; read-out: EC50, viability, cherry pick confirmation): 22.1 µM
O=C(N/N=C/c1ccc([N+](=O)[O-])o1)c1ccc(O)cc1 [Nifuroxazide]		19.6 µM	39.6%	inactive	inactive	inactive	inactive	inactive	inactive	inactive	inactive	inactive	inactive	inactive	inactive				EC50 [1, 6]: 10.2 µM; Emax [1, 7]: 47.4%
CCCCNC(=O)OCC#CI [3-Iodo-2-propynyl-N-butylcarbamate]	104.439			inactive	inactive	inactive	inactive	inactive	inactive	inactive	inactive	inactive	inactive	inactive	inactive	78.699	34.4 µM	47.6 µM	
Nc1cc(Cl)ccc1O [2-Amino-4-chlorophenol]																			EC50, p53 activation, cherry pick confirmation [1]: inactive; Efficacy, p53 activation, cherry pick confirmation [1]: inactive; EC50 ([1]; Homo sapiens, HCT-116, read-out: EC50, p53 activation, primary screening): 38.2 µM; Emax ([1]; Homo sapiens, HCT-116, read-out: Efficacy, p53 activation, primary screening): 53.8%; EC50, p53 activation, cherry pick confirmation [2]: inactive; EC50, p53 activation, primary screening [2]: inactive; Efficacy, p53 activation, cherry pick confirmation [2]: inactive; Efficacy, p53 activation, primary screening [2]: inactive; EC50, p53 activation, cherry pick confirmation [3]: inactive; EC50, p53 activation, primary screening [3]: inactive; Efficacy, p53 activation, cherry pick confirmation [3]: inactive; Efficacy, p53 activation, primary screening [3]: inactive; EC50, viability, cherry pick confirmation (p53RE-bla HCT-116 cells): inactive; EC50, viability, primary screening (p53RE-bla HCT-116 cells): inactive; Efficacy, viability, cherry pick confirmation (p53RE-bla HCT-116 cells): inactive; Efficacy, viability, primary screening (p53RE-bla HCT-116 cells): inactive
COP(=S)(OC)Oc1ccc([N+](=O)[O-])cc1 [Methyl parathion]																			p53 activation EC50 [1]: inactive; p53 activation efficacy [1]: inactive; EC50 [2]: 9.83 µM; p53 activation efficacy [2]: 52.7126 and 58.5263; p53 activation EC50 [3]: inactive; EC50 ([3]; read-out: p53 activation EC50): 7.98 µM; Viability EC50 (p53RE-bla HCT-116 cells): inactive; Viability efficacy (p53RE-bla HCT-116 cells): inactive
Nc1cc(Cl)c(-c2cc(Cl)c(N)cc2Cl)cc1Cl [2,2',5,5'-Tetrachlorobenzidine]	92.1083			inactive	inactive	inactive	inactive	inactive	inactive	inactive	inactive	inactive				80.5693	36.2 µM	17.8 µM	EC50 (p53RE-bla HCT-116 cells; [10]): 49.4 µM and 51.3 µM; EC50 (p53RE-bla HCT-116 cells; [11]): 49.5 µM (2×) and 37.5 µM
CN1C(=O)N(c2ccccc2Br)Cc2cnc(Nc3ccc4c(c3)OCC(CO)O4)nc21 (centres unmarked) [PharmaGSID_48519]	31.694			inactive	inactive	inactive	inactive	inactive	inactive	inactive	inactive	inactive	inactive	inactive	inactive	31.571	13.6 µM	9.59 µM	
C[C@H]1CCCC(=O)CCC/C=C/c2cc(O)cc(O)c2C(=O)O1 [Zearalenone]	inactive	16.8 µM	49.2%	inactive	inactive	inactive	inactive	inactive	inactive	inactive	inactive	inactive	inactive	inactive	inactive				p53 activation EC50, cherry pick confirmation [1]: inactive
CC[n+]1c(-c2ccccc2)c2cc(N)ccc2c2ccc(N)cc21 [Ethidium bromide]		4.43 µM	182%	inactive	inactive	inactive	inactive	inactive	inactive	inactive	inactive	inactive	inactive	inactive	inactive				EC50 [1, 6]: 5.41 µM; Emax [1, 7]: 176%
Oc1ccc(C2(c3ccc(O)cc3)c3ccccc3-c3ccccc32)cc1 [4,4'-(9H-Fluorene-9,9-diyl)diphenol]	169.95			inactive	inactive	inactive	inactive	inactive	inactive	inactive	inactive		inactive			157.361	44.8 µM	47.6 µM	EC50 (p53RE-bla HCT-116 cells; [10]): 34.3 µM and 32.4 µM and 45.8 µM; EC50 (p53RE-bla HCT-116 cells; [11]): 49.5 µM
